The source of these data is PMC4537502 (Psychopharmacology, 2015).

Test [1] concerns D2R. The following applies: cited from earlier work.
A further test relates to rats. The following applies: 15.9 mg/kg, ref Rung et al. [2008], Ponten et al. [2010]; cited from earlier work.
Test [2] has as its target dopamine D2 receptor (D2R) (Rattus norvegicus, UniProt P61169). As to the kind of experiment: in vivo. The procedure:
(§1) Because of limited availability of the test drug, the 60 mg/kg dose group was scanned only with ^11C-raclopride.
(§2) After drug administration and about 20 min before each microPET scan, animals were anesthetized with isoflurane (Pharmachemie BV, Haarlem, Netherlands). […] Both tracers were injected as a slow bolus (1 ml of saline-diluted tracer solution infused during a period of 1 min), using a Harvard-style injection pump.
(§3) Two rats were scanned in each scan session. They were positioned on heating mats in a microPET Focus 220 system, in transaxial position above each other with their brains in the field of view. Body temperature of the animals was kept close to normal with electronic temperature controllers. Heart rate and oxygen level of the blood during the scan were monitored using pulse oximeters (PulseSense, Nonin). […] A list mode protocol was used with a 76-min acquisition time.
(§4) Image reconstruction was performed using microPET Manager 2.3.3.6 (Siemens). The PET data were split according to position along the y-axis, so that a separate data set was acquired for each animal. The list mode data of the emission scans were reframed in a dynamic sequence of 6 × 10, 4 × 30, 2 × 60, 1 × 120, 1 × 180, 4 × 300, and 3 × 600 s (with an additional 960-s frame for the rat that was injected first). The data were reconstructed per time frame employing an iterative reconstruction algorithm (OSEM2D with Fourier rebinning, 4 iterations, and 16 subsets). […] Data sets were corrected for decay, random coincidences, scatter, and attenuation.
In ^11C-raclopride scans of the brain, three-dimensional regions of interest (ROIs) were manually drawn over the left and right striatum and cerebellum, using the program ASIPro 6.3.3.0 (Siemens). […] Time-activity curves (TACs) were generated for these regions (Fig. 1). The results are expressed as dimensionless standardized uptake values (PET-SUV), defined as [(tissue activity concentration (MBq/g) × body weight (g) / injected dose (MBq)]. Brain tissue was assumed to have a specific gravity of 1 g/ml.
Plateau values for the striatum-to-cerebellum ratio were derived from this curve fit.

Test [3] deals with 6-hydroxydopamine-hemilesioned rats. The following applies: 7.9 mg/kg, ref Ponten et al. [2013]; cited from earlier work.
Test [4] concerns the target T1, sigma-1R (Rattus norvegicus, UniProt Q9R0C9).
T1 construct: from tissue; host or cells: brain of living rats (Wistar Unilever), in vivo microPET
As to the kind of experiment: microPET with ^11C-SA4503, Logan graphical analysis and Cunningham-Lassen plot (sigma-1R occupancy). In kind it is in vivo. The following applies: for sigma-1R occupancy: rat brain, Cunningham-Lassen plot. Here is the method: as §1, §2
From these samples, 25 μl of whole blood was collected and plasma (25 μl) was then obtained by centrifugation of the remaining sample (5 min at 13,000×g). Radioactivity in plasma and whole blood was determined using a calibrated gamma counter (CompuGamma CS1282, LKB-Wallac, Turku, Finland). Results are expressed as standardized uptake values (SUV), defined as [(plasma activity concentration (MBq/g) × body weight (g) / injected dose (MBq)]. Rat plasma was assumed to have a specific gravity of 1 g/ml.
as §3, §4
Logan graphical analysis was used to calculate regional tracer distribution volumes (VT). The starting time of the Logan fit was 20 min. Metabolite-corrected plasma radioactivity data were used as input function, and (uncorrected) whole blood radioactivity served to estimate the contribution of blood to brain radioactivity measured by the PET camera. […] The PMOD software package was used for curve fitting.

The target of test [5] is sigma-1R. The conditions noted are these: ref Sahlholm et al. [2013], cited from earlier work; for Ki: ^3H-(+)-pentazocine competition, read-out: high-affinity Ki at sigma-1R.
A further test has as its system habituated rats. The conditions noted are these: 15.9 mg/kg, ref Rung et al. [2008], Ponten et al. [2010]; cited from earlier work.
A further test relates to Arc gene expression. The conditions noted are these: rats, 10 mg/kg, ref Waters et al. [2014]; cited from earlier work.
The target in test [6] is D2R. On the set-up: method as in Pettersson et al. [2010]. The conditions noted are these: ref Pettersson et al. [2010]; read-out: high-affinity Ki at D2R; cited from earlier work.
The subject of test [7] is dopamine release in striatum. The conditions noted are these: rats, 1.7 mg/kg, ref Ponten et al. [2010]; cited from earlier work.
The target of test [8] is D2R. The conditions noted are these: read-out: Kd in rat brain tissue; ref Köhler et al. [1985]; cited from earlier work.
A further test concerns striatal D2Rs. On the set-up: method as in Ekesbo et al. ([1999]). The following applies: rhesus monkeys, continuous infusion 3 mg/kg/h, ref Ekesbo et al. ([1999]); cited from earlier work.
For test [9], the system named is D2R. On the set-up: method as in Tolboom et al. [2015]. The conditions noted are these: human subjects, ref Tolboom et al. [2015], cited from earlier work.
The mark [10] stands for this setting: rat, 3 and 15 mg/kg pridopidine.

Each structure is given as a SMILES string. Where two headings read alike, the source gives them in different places.

T1 sequence (Q9R0C9 whole entry): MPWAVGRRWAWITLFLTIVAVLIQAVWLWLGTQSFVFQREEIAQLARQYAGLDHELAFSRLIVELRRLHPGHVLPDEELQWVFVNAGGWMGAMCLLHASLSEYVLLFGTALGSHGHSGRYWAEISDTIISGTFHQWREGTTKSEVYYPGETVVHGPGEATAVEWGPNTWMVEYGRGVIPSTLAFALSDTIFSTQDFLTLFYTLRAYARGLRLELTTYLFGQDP
dopamine D2 receptor (D2R), sequence (P61169 whole entry): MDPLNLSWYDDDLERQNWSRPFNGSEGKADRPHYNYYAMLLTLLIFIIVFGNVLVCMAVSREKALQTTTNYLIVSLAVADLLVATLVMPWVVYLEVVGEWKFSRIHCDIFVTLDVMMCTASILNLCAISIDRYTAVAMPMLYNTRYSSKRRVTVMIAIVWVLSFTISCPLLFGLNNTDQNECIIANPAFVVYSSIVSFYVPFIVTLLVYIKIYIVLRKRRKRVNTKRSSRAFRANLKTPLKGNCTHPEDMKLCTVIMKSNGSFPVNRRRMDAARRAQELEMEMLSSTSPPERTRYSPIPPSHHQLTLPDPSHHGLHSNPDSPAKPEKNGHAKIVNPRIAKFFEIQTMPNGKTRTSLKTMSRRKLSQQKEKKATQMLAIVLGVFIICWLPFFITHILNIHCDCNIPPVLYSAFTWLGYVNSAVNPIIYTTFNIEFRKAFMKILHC

As to `CCCN1CCC(c2cccc(S(C)(=O)=O)c2)CC1` [pridopidine, 4-[3-(methylsulfonyl)phenyl]-1-propylpiperidine], in the test with D2R [1] (Sprague-Dawley rats, 10 mg/kg, ex vivo radioligand binding, ref Natesan et al. [2006]), the D2R occupancy was 35%. The “ED50 of D2R occupancy” value in the test with D2R [1] (Sprague-Dawley rats, ex vivo radioligand binding, ref Natesan et al. [2006]) is 18.99 mg/kg. Further, the “time to maximal D2R occupancy after s.c. injection” value in the test on D2R [1] (rat, ref Natesan et al. ([2006])) is given as not above 1 h. Moreover, the “time maximal D2R occupancy is maintained” value in the test with D2R [1] (rat, s.c., ref Natesan et al. ([2006])) is 4 h. For the same compound, the “effect on MK-801- and amphetamine-induced hyperlocomotion” value in the test on rats is “decreased MK-801- and amphetamine-induced hyperlocomotion”. In test [2] (rat striatum, 60 mg/kg pridopidine s.c.), the “reduction of ^11C-raclopride binding” value is 44–66%. The “effect on ^11C-raclopride uptake (time-activity curves)” value is “increase tracer uptake in striatum but not in cerebellum” in test [2] (rat, 3 mg/kg pridopidine); “increase tracer uptake in both striatum and cerebellum to a rather minor extent” in [2] (rat, 15 mg/kg pridopidine); “striking increase of the uptake of ^11C-raclopride in both striatum and cerebellum” in test [2] (rat, 60 mg/kg pridopidine). Further, the “changes in ^11C-raclopride binding” value in test [2] (setting [10]) is listed as “No significant changes”. Further, the receptor occupancy at 60 mg/kg in test [2] (rat, sc, read-out: D2R occupancy (SRTM fit)) amounted to 44%. For the same compound, the “effect on L-DOPA-induced rotational asymmetry” value in [3] was “decreased L-DOPA-induced rotational asymmetry in 6-hydroxydopamine-hemilesioned rats”. Also, the sigma-1R occupancy is listed as 56.7 ± 2.3% on sigma-1R [4] (pridopidine 3 mg/kg s.c. 60 min before tracer) and 84.5 ± 1.7% at sigma-1R [4] (pridopidine 15 mg/kg s.c. 60 min before tracer). The “VT of ^11C-SA4503 (Logan graphical analysis)” value on sigma-1R [4] (rat whole brain and brain regions, 3 and 15 mg/kg pridopidine) is listed as “dose-dependent reduction in VT for all regions investigated”. Further, on sigma-1R [4] (setting [10]), the “area under the brain time-activity curve (AUC) of ^11C-SA4503” value was “significantly decreased”. In addition, on sigma-1R [4] (rat, sc, read-out: sigma-1R occupancy, rat brain, pridopidine 3 mg/kg s.c. 60 min before tracer, Cunningham-Lassen plot), the receptor occupancy at 3 mg/kg was 57 ± 2%. The receptor occupancy at 15 mg/kg at sigma-1R [4] (rat, sc, read-out: sigma-1R occupancy, rat brain, pridopidine 15 mg/kg s.c. 60 min before tracer, Cunningham-Lassen plot) worked out at 85 ± 2%. Moreover, the Ki on sigma-1R [5] is approximately 0.07 µM; at D2R [6] it was 7.52 µM. In addition, the “effect on locomotor activity in habituated rats” value in the test with habituated rats is on record as “increased locomotor activity in habituated rats”. Besides, the “effect on Arc gene expression in frontal cortex” value with Arc gene expression is listed as “induced Arc gene expression in frontal cortex”. The “effect on dopamine release in striatum” value in test [7] is on record as “increased dopamine release in striatum”.

Regarding `CCN1CCC[C@H]1CNC(=O)c1c(O)c(Cl)cc(Cl)c1OC` (racemic) [^11C-raclopride], at D2R [8], the dissociation constant (Kd) is 0.0012 µM.

As to `CCCN1CCC[C@@H](c2cccc(S(C)(=O)=O)c2)C1` [(−)-OSU6162], the “displacement of ^11C-raclopride” value with striatal D2Rs is listed as 76%. Also, the Ki is approximately 0.36 µM on sigma-1R [5] and 0.76 µM on D2R [6]. Further, the “affinity for sigma-1R relative to D2R” value in the test on sigma-1R [5] (Pettersson et al. [2010]) is “about two times higher affinity for sigma-1R than for D2R”. Further, the D2R occupancy in the test on D2R [9] (doses 15 to 90 mg (0.14 to 1.25 mg/kg)) was 2 to 33%. For the same compound, the “level at which the dose-occupancy curve appeared to level off” value in the test with D2R [9] is on record as 40%.

As usually defined, the Ki is a dissociation constant, usually derived from enzyme kinetics or from competition with a known ligand. What is called Kd is the equilibrium constant for the complex coming apart.
